Here are results for 22 compounds from patent publication US9540362B2, “Sphingosine-1-phosphate receptor agonists, methods of preparing the same, and pharmaceutical compositions containing the same as an active agent” (LG LIFE SCIENCES LTD., priority 2013, dated 2017).

Counter-ions that a name gives are not always drawn.

The target of assay [1] is human sphingosine-1-phosphate 1 receptor (S1P1 receptor) (Homo sapiens, UniProt P21453). Put plainly: Ca2+ inducing ability using CHO cells overexpressing human S1P1 receptor (Calcium 5 assay kit). As to conditions: CHO cells overexpressing human S1P1, calcium RFU; S1P 1 μM = 100%. The format is cell-based. The source says: Evaluation of Ca^2+ inducing ability of test compound using a cell line expressing human sphingosine-1-phosphate
Chain of human sphingosine-1-phosphate 1 receptor (S1P1 receptor) (P21453 whole entry): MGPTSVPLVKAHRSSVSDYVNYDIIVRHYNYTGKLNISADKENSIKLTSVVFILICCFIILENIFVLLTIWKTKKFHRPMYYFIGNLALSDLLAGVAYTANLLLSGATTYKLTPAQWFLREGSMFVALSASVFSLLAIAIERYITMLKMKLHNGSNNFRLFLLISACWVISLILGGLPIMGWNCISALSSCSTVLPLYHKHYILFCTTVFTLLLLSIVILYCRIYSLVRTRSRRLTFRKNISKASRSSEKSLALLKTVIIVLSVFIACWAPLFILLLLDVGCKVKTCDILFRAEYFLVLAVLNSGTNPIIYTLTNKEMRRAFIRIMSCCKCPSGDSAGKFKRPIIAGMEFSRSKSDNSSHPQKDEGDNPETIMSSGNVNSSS
CHO (Chinese hamster ovary) cells which overexpress human sphingosine-1-phosphate 1 receptor (S1P1 receptor) that react with sphingosine-1-phosphate (S1P) are used for a functional test method wherein an increase of calcium indicates a therapeutic efficacy of an agonist compound.
To prepare CHO cells which overexpress human S1P1˜S1P5, human clones for each subtype having HA at the N terminal residue (S1P1: EDG010TN00, S1P2: EDG020TN00, S1P3: EDG030TN00, S1P4: EDG060TN00, S1P5: EDG080TN00) were purchased from the Missouri S&T cDNA Resource Center and co-transfected with G-protein alpha subunit (G-alpha-16) into CHO-K1 cells.
A calcium measurement kit (Calcium 5 assay kit, Molecular Devices) was used to select an agonist compound. The principle of calcium measurement is that calcium-sensitive dyes are applied to cells, they enter into the cytoplasm of the cells during incubation, and when a ligand binds to a certain receptor to release calcium into the cytoplasm, the dyes bind to said calcium to induce fluorescence which is measured. This test method can sensitively measure only the intracellular calcium concentration change because any change that may occur outside the cells is masked by a masking dye.
The experimental procedure was as follows. One day before calcium measurement, CHO cells overexpressing hS1P1˜hS1P5 were dispensed into a 96-well plate (bottom clear black well) in 3×10^4 cells per well and cultured at 37° C. under 5% carbon dioxide condition for one day. 100 μl of calcium dyes mixed with Assay Buffer (1×HBSS, 20 mM HEPES, 2.5 mM probenecid, pH 7.4) were dispensed into culture solution in well and cultured at 37° C. for one hour. Test compounds were dissolved in 100% DMSO to prepare 1 μl solution per each concentration, and each solution was mixed with 199 μl Assay Buffer such that the concentrations were 50, 5, 0.5, 0.05, 0.005 and 0.0005 μM. The plate cultured with the calcium dyes was put into FlaxstationII (Molecular Devices), and the prepared test compounds (the final concentrations of the test compounds: 10, 1, 0.1, 0.01, 0.001 and 0.0001 μM) were programmed to be automatically inoculated in 50 μl per each well. For a total of 90 seconds, RFU (relative fluorescence unit) values were measured. The value of Reference (S1P substance 1 μM) deducting the blank value was set as 100%, and EC50 values of the test compounds were calculated by prism.

For the next assay, the system named is lymphocytes in blood. Put plainly: Rat peripheral blood lymphocyte decrease. Type of assay: in vivo. As to conditions: male SD rat, 6 hours after administration. How it is done:
Evaluation of Rat Peripheral Blood Lymphocyte Decrease
Lymphocyte decrease in blood by S1P1 agonist was evaluated using a male SD rat. After adapting a rat weighing about 250 g to a breeding facility for one week, a test compound was administered to it once. At 3 hours, 6 hours, 24 hours and 48 hours after administration, blood was taken from a tail caudal vein, and about 200 μl of the blood was put into an EDTA tube while preventing it from clotting, followed by measurement of the number of lymphocytes in blood. The number of lymphocytes was analyzed by a hematological examination device, Hemoanalyzer. The doses of the test compounds were 3 mg/kg for Example 52, 94, 108, 117, 142, 145, 146, 148 and 149 compounds, and 1 mg/kg for Example 150, 151, 153, 154, 155, 158, 159 and 161 compounds.

Consider `Cc1c(-c2noc(-c3ccc4c(cnn4C(C)C)c3)n2)ccc2c1CCN(CC(=O)O)C2` [Example 85, {6-[5-(1-isopropyl-1H-indazol-5-yl)-[1,2,4]oxadiazol-3-yl]-5-methyl-3,4-dihydro-1H-isoquinolin-2-yl}-acetic acid, trifluoroacetate], for which the EC50 (commonly the concentration needed to bring the measured effect to its halfway point) in assay [1] was 10 nM.

Regarding `CC(C)n1nc(Cl)c2cc(COc3ccc4c(c3)CCC(CN3CCCC(F)(C(=O)O)C3)=C4Cl)ccc21` (stereo not shown) [Example 158, 1-[1-chloro-6-(3-chloro-1-isopropyl-1H-indazol-5-ylmethoxy)-3,4-dihydro-naphthalen-2-ylmethyl]-3-fluoro-piperidine-3-carboxylic acid], the “Lymphocyte count (degree of decrease in lymphocyte number)” value in the assay with lymphocytes in blood (administered once, 1 mg/kg) is on record as −30%. Moreover, the EC50 in assay [1] was 14 nM.

`Cc1cc(CN2CC(C(=O)O)C2)ccc1-c1noc(-c2ccc3c(ccn3C(C)C)c2)n1` [Example 5, 1-{4-[5-(1-isopropyl-1H-indol-5-yl)-[1,2,4]oxadiazol-3-yl]-3-methyl-benzyl}-azetidine-3-carboxylic acid]: the EC50 in assay [1] was determined as 14 nM.

Turning to `CC(C)n1nc(Cl)c2cc(COc3ccc4c(c3)CCC(CN3CCC(F)(C(=O)O)C3)=C4Cl)ccc21` (stereo not shown) [Example 161, 1-[1-chloro-6-(3-chloro-1-isopropyl-1H-indazol-5-ylmethoxy)-3,4-dihydro-naphthalen-2-ylmethyl]-3-fluoro-pyrrolidine-3-carboxylic acid], the “Lymphocyte count (degree of decrease in lymphocyte number)” value in the assay on lymphocytes in blood (administered once, 1 mg/kg) is on record as −65%. Besides, the EC50 in assay [1] was 3 nM.

On to `CCC(C)n1nc(Cl)c2cc(COc3ccc4c(c3)CCC(CN3CCC(C(=O)O)CC3)=C4Cl)cnc21` (stereo not shown) [Example 160, 1-[6-(1-sec-butyl-3-chloro-1H-pyrazolo[3,4-b]pyridin-5-ylmethoxy)-1-chloro-3,4-dihydro-naphthalen-2-ylmethyl]-piperidine-4-carboxylic acid], for which the EC50 in assay [1] turned out to be 19 nM.

As for `CC(C)n1nc(Cl)c2cc(COc3ccc4c(c3)CCC(CN3CCC(C(=O)O)C3)=C4Cl)ccc21` (stereo not shown) [Example 150, 1-[1-chloro-6-(3-chloro-1-isopropyl-1H-indazol-5-ylmethoxy)-3,4-dihydro-naphthalen-2-ylmethyl]-pyrrolidine-3-carboxylic acid], the “Lymphocyte count (degree of decrease in lymphocyte number)” value in the assay with lymphocytes in blood (administered once, 1 mg/kg) is on record as −82%. Besides, the EC50 in assay [1] is 8 nM.

For `Cc1c(-c2noc(-c3ccc4c(c3)c(Cl)nn4C(C)C)n2)ccc2c1CCN(CCC(=O)O)C2` [Example 94, 3-{6-[5-(3-chloro-1-isopropyl-1H-indazol-5-yl)-[1,2,4]oxadiazol-3-yl]-5-methyl-3,4-dihydro-1H-isoquinolin-2-yl}-propanoic acid, trifluoroacetate], in the assay on lymphocytes in blood (administered once, 3 mg/kg), the “Lymphocyte count (degree of decrease in lymphocyte number)” value is listed as −82%. Besides, the EC50 in assay [1] came to 6 nM.

In the case of `Cc1cc(CN2CC(C(=O)O)C2)ccc1-c1noc(-c2ccc3c(c2)c(C#N)cn3C(C)C)n1` [Example 4, 1-{4-[5-(3-cyano-1-isopropyl-1H-indol-5-yl)-[1,2,4]oxadiazol-3-yl]-3-methyl-benzyl}-azetidine-3-carboxylic acid], in assay [1], the EC50 is 23 nM.

As to `CC(C)n1ccc2cc(-c3nc(-c4cccc5c4CCCC5NS(N)(=O)=O)no3)ccc21` (stereo not shown) [Example 38, N-{5-[5-(1-isopropyl-1H-indol-5-yl)-[1,2,4]oxadiazol-3-yl]-1,2,3,4-tetrahydro-naphthalen-1-yl}-sulfamide], in assay [1], the EC50 amounted to 50 nM.

As for `Cc1cc(CCC(=O)O)ccc1-c1noc(-c2ccc3c(ccn3C(C)C)c2)n1` [Example 1, 3-{4-[5-(1-isopropyl-1H-indol-5-yl)-[1,2,4]oxadiazol-3-yl]-3-methyl-phenyl}-propanoic acid], the EC50 in assay [1] was 5 nM.

On to `Cc1cc(CCC(=O)O)ccc1-c1noc(-c2ccc3c(c2)c(Cl)cn3C(C)C)n1` [Example 52, 3-{4-[5-(3-chloro-1-isopropyl-1H-indol-5-yl)-[1,2,4]oxadiazol-3-yl]-3-methyl-phenyl}-propanoic acid], for which, in the assay on lymphocytes in blood (administered once, 3 mg/kg), the “Lymphocyte count (degree of decrease in lymphocyte number)” value is recorded as −80%. In addition, the EC50 in assay [1] was 10 nM.

With `CC1=C(CN2CCC(C(=O)O)CC2)CCc2cc(OCc3ccc4c(c3)c(Cl)nn4C(C)C)ccc21` [Example 148, 1-[6-(3-chloro-1-isopropyl-1H-indazol-5-ylmethoxy)-1-methyl-3,4-dihydro-naphthalen-2-ylmethyl]-piperidine-4-carboxylic acid], the “Lymphocyte count (degree of decrease in lymphocyte number)” value in the assay on lymphocytes in blood (administered once, 3 mg/kg) is −81%. Further, in assay [1], the EC50 was found to be 19 nM.

Consider `Cc1cc(C(C)CC(=O)O)ccc1-c1noc(-c2ccc3c(c2)c(Cl)nn3C(C)C)n1` (stereo not shown) [Example 129, 3-{4-[5-(3-chloro-1-isopropyl-1H-indazol-5-yl)-[1,2,4]oxadiazol-3-yl]-3-methyl-phenyl}-butyric acid, trifluoroacetate], for which the EC50 in assay [1] stood at 50 nM.

Consider `CCCCCCCCc1ccc(CCC(N)(CO)CO)cc1` [FTY-720, Fingolimod, reference compound], for which the “Lymphocyte count (degree of decrease in lymphocyte number)” value in the assay on lymphocytes in blood (dose of the reference not stated) is −80%.

`CC(C)n1nc(Cl)c2cc(COc3ccc4cc(CN5CC(C(=O)O)C5)ccc4c3)ccc21` [Example 142, 1-[6-(3-chloro-1-isopropyl-1H-indazol-5-ylmethoxy)-naphthalen-2-ylmethyl]-azetidine-3-carboxylic acid]: the “Lymphocyte count (degree of decrease in lymphocyte number)” value in the assay with lymphocytes in blood (administered once, 3 mg/kg) is on record as −80%. Moreover, the EC50 in assay [1] came out at 7 nM.

For `CC1=C(CN(C)CC(=O)O)CCc2cc(OCc3ccc4c(c3)c(Cl)nn4C(C)C)ccc21` [Example 145, {[6-(3-chloro-1-isopropyl-1H-indazol-5-ylmethoxy)-1-methyl-3,4-dihydro-naphthalen-2-ylmethyl]-methyl-amino}-acetic acid], the “Lymphocyte count (degree of decrease in lymphocyte number)” value in the assay with lymphocytes in blood (administered once, 3 mg/kg) is given as −48%. Further, the EC50 in assay [1] came out at 9 nM.

Take `Cc1cc(CN2CC(C(=O)O)C2)ccc1-c1noc(-c2ccc3c(c2)c(Cl)cn3C(C)C)n1` [Example 3, 1-{4-[5-(3-chloro-1-isopropyl-1H-indol-5-yl)-[1,2,4]oxadiazol-3-yl]-3-methyl-benzyl}-azetidine-3-carboxylic acid]: in assay [1], the EC50 worked out at 23 nM.

For `CC(C)n1nc(Cl)c2cc(-c3nc(-c4cccc5c4CCN(S(N)(=O)=O)C5)no3)ccc21` [Example 108, 5-[5-(3-chloro-1-isopropyl-1H-indazol-5-yl)-[1,2,4]oxadiazol-3-yl]-3,4-dihydro-1H-isoquinoline-2-sulfonic acid amide], the “Lymphocyte count (degree of decrease in lymphocyte number)” value in the assay on lymphocytes in blood (administered once, 3 mg/kg) was −70%. In assay [1], the EC50 worked out at 20 nM.

With `Cc1c(CN2CC(C(=O)O)C2)cccc1-c1noc(-c2ccc3c(ccn3C(C)C)c2)n1` [Example 26, 1-{3-[5-(1-isopropyl-1H-indol-5-yl)-[1,2,4]oxadiazol-3-yl]-2-methyl-benzyl}-azetidine-3-carboxylic acid], in assay [1], the EC50 worked out at 2 nM.

For `Cc1c(-c2noc(-c3ccc4nn(C(C)C)cc4c3)n2)ccc2c1CCN(CC(=O)O)C2` [Example 97, {6-[5-(2-isopropyl-2H-indazol-5-yl)-[1,2,4]oxadiazol-3-yl]-5-methyl-3,4-dihydro-1H-isoquinolin-2-yl}-acetic acid, trifluoroacetate], in assay [1], the EC50 worked out at 50 nM.

For the compound `CC(C)n1ccc2cc(-c3nc(-c4ccc(CN5CC(C(=O)O)C5)cc4)no3)ccc21` [Example 2, 1-{4-[5-(1-isopropyl-1H-indol-5-yl)-[1,2,4]oxadiazol-3-yl]-benzyl}-azetidine-3-carboxylic acid], in assay [1], the EC50 was determined as 25 nM.

For the compound `Cc1c(-c2noc(-c3ccc4c(c3)c(Cl)cn4C(C)C)n2)ccc2c1CCN(CC(=O)O)C2` [Example 58, {6-[5-(3-chloro-1-isopropyl-1H-indol-5-yl)-[1,2,4]oxadiazol-3-yl]-5-methyl-3,4-dihydro-1H-isoquinolin-2-yl}-acetic acid, hydrochloride], the EC50 in assay [1] was 20 nM.
